# Results taken from ChEMBL document CHEMBL4152352, “Discovery of a non-toxic [1,2,4]triazolo[1,5-a]pyrimidin-7-one (WS-10) that modulates ABCB1-mediated multidrug resistance (MDR)” (Bioorg Med Chem, 2018).
# pIC50: −log10 of the molar value. The source made the active and inactive calls. No cut-off for these calls is given here.
# Legend:
# [1] = system: SW620/AD300; assay: Effect on expression of ABCB1 protein in human SW620/Ad300 cells at 10 to 20 uM by Western blot method; assay type: functional, cell-based
# [2] = Ratio of paclitaxel IC50 for cytotoxicity against human SW620 cells in absence of test compound to paclitaxel IC50 for human SW620/Ad300 cells in presence to 10 uM test compound; assay type: functional
# [3] = Ratio of paclitaxel IC50 for cytotoxicity against HEK293T cells in absence of test compound to paclitaxel IC50 for HEK293T cells expressing ABCB1 in presence of 20 uM test compound; assay type: functional, Homo sapiens
# [4] = system: ECa-109 cell line; assay: Cytotoxicity against human EC109 cells assessed as decrease in cell survival at 10 to 20 uM after 72 hrs by MTT assay; assay type: cell-based; settings: eca-109, 72 h
# [5] = biological target: T1, ATP-dependent translocase ABCB1 (Homo sapiens, UniProt P08183); assay: Inhibition of ABCB1 (unknown origin) expressed in HEK293T cells assessed as potentiation of doxorubicin-induced cytotoxicity after 72 hrs by MTT assay; assay type: cell-based
# T1 sequence (P08183 whole entry): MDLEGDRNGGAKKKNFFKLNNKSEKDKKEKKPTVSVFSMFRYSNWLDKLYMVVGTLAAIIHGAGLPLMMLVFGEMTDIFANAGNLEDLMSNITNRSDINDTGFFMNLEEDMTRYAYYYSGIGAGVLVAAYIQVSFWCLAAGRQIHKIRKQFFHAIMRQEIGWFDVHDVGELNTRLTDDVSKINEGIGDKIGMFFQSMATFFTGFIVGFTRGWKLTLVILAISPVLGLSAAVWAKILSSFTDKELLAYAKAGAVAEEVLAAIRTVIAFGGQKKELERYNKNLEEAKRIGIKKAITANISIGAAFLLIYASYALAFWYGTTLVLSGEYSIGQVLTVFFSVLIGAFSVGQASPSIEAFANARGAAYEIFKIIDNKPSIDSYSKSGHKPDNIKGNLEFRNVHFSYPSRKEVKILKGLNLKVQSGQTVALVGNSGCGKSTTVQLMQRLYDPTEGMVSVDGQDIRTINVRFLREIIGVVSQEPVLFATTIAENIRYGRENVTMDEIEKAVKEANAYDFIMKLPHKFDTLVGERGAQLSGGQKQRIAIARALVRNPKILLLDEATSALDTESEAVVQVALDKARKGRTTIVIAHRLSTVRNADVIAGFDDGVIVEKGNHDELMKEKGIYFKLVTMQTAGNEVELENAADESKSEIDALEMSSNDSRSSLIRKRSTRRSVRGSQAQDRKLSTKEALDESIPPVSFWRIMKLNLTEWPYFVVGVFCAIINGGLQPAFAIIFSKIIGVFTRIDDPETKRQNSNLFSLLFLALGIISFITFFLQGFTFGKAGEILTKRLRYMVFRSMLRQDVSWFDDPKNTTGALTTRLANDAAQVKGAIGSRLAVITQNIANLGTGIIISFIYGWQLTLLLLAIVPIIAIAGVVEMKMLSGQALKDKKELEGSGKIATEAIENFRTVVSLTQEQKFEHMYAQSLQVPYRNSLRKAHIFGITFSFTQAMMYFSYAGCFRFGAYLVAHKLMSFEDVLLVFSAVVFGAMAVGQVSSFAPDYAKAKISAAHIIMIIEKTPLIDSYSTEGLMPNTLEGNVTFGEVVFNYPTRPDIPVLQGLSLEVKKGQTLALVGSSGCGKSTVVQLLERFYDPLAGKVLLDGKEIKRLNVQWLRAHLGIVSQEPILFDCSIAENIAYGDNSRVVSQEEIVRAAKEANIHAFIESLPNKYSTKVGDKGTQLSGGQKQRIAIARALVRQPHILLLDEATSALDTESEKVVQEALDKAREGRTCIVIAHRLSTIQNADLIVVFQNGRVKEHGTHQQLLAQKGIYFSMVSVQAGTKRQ
# [6] = Ratio of cisplatin IC50 for cytotoxicity against human SW620 cells in absence of test compound to cisplatin IC50 for human SW620/Ad300 cells in presence to 4 uM test compound; assay type: functional
# [7] = Ratio of doxorubicin IC50 for cytotoxicity against HEK293T cells in absence of test compound to doxorubicin IC50 for HEK293T cells expressing ABCB1 in presence of 20 uM test compound; assay type: functional, Homo sapiens
# [8] = system: MGC-803; assay: Cytotoxicity against human MGC803 cells assessed as decrease in cell survival at 10 to 20 uM after 72 hrs by MTT assay; assay type: cell-based; settings: mgc-803, 72 h
# [9] = Ratio of cisplatin IC50 for cytotoxicity against HEK293T cells in absence of test compound to cisplatin IC50 for HEK293T cells expressing ABCB1 in presence of 10 uM test compound; assay type: functional, Homo sapiens
# [10] = Ratio of paclitaxel IC50 for cytotoxicity against HEK293T cells in absence of test compound to paclitaxel IC50 for HEK293T cells expressing ABCB1 in presence of 4 uM test compound; assay type: functional, Homo sapiens
# [11] = system: HEK-293T; assay: Potentiation of paclitaxel-induced cytotoxicity against HEK293T cells assessed as change in paclitaxel IC50 at 10 uM after 72 hrs by MTT assay relative to control; assay type: cell-based; settings: human
# [12] = system: HEK-293T; assay: Potentiation of cisplatin-induced cytotoxicity against HEK293T cells assessed as change in cisplatin IC50 at 4 uM after 72 hrs by MTT assay relative to control; assay type: cell-based; settings: human
# [13] = system: SW-620; assay: Potentiation of doxorubicin-induced cytotoxicity against human SW620 cells assessed as change in doxorubicin IC50 at 10 uM after 72 hrs by MTT assay relative to control; assay type: cell-based; settings: sw-620, 72 h
# [14] = system: SW620/AD300; assay: Effect on expression of ABCB1 protein in human SW620/Ad300 cells at 20 uM after 24 to 96 hrs by Western blot method; assay type: functional, cell-based
# [15] = system: SW-620; assay: Potentiation of cisplatin-induced cytotoxicity against human SW620 cells assessed as change in cisplatin IC50 at 10 uM after 72 hrs by MTT assay relative to control; assay type: cell-based; settings: sw-620, 72 h
# [16] = biological target: T1, ATP-dependent translocase ABCB1; assay: Inhibition of ABCB1 in human SW620/Ad300 cells assessed as increase in intracellular paclitaxel accumulation at 10 to 20 uM preincubated for 72 hrs followed by paclitaxel addition and measured after 3 hrs by UPLC method; assay type: cell-based
# [17] = system: SW-620; assay: Potentiation of doxorubicin-induced cytotoxicity against human SW620 cells assessed as change in doxorubicin IC50 at 20 uM after 72 hrs by MTT assay relative to control; assay type: cell-based; settings: sw-620, 72 h
# [18] = system: SW-620; assay: Potentiation of paclitaxel-induced cytotoxicity against human SW620 cells assessed as change in paclitaxel IC50 at 4 uM after 72 hrs by MTT assay relative to control; assay type: cell-based; settings: sw-620, 72 h
# [19] = system: HEK-293T; assay: Potentiation of paclitaxel-induced cytotoxicity against HEK293T cells assessed as change in paclitaxel IC50 at 4 uM after 72 hrs by MTT assay relative to control; assay type: cell-based; settings: human
# [20] = Ratio of doxorubicin IC50 for cytotoxicity against HEK293T cells in absence of test compound to doxorubicin IC50 for HEK293T cells expressing ABCB1 in presence of 4 uM test compound; assay type: functional, Homo sapiens
# [21] = system: TE-1; assay: Cytotoxicity against human TE1 cells assessed as decrease in cell survival at 10 to 20 uM after 72 hrs by MTT assay; assay type: cell-based; settings: te-1, 72 h
# [22] = system: SW-620; assay: Potentiation of cisplatin-induced cytotoxicity against human SW620 cells assessed as change in cisplatin IC50 at 20 uM after 72 hrs by MTT assay relative to control; assay type: cell-based; settings: sw-620, 72 h
# [23] = Ratio of doxorubicin IC50 for cytotoxicity against human SW620 cells in absence of test compound to doxorubicin IC50 for human SW620/Ad300 cells in presence to 10 uM test compound; assay type: functional
# [24] = biological target: T1, ATP-dependent translocase ABCB1; assay: Inhibition of ABCB1 in human SW620/Ad300 cells assessed as potentiation of doxorubicin-induced cytotoxicity after 72 hrs by MTT assay; assay type: cell-based
# [25] = system: A549; assay: Cytotoxicity against human A549 cells assessed as decrease in cell survival at 10 to 20 uM after 72 hrs by MTT assay; assay type: cell-based; settings: a549, 72 h
# [26] = system: SW620/AD300; assay: Cytotoxicity against human SW620/AD300 cells assessed as decrease in cell survival after 72 hrs by MTT assay; assay type: cell-based; settings: SW620/AD300, 72 h
# [27] = system: SW-620; assay: Potentiation of doxorubicin-induced cytotoxicity against human SW620 cells assessed as change in doxorubicin IC50 at 4 uM after 72 hrs by MTT assay relative to control; assay type: cell-based; settings: sw-620, 72 h
# [28] = Ratio of doxorubicin IC50 for cytotoxicity against human SW620 cells in absence of test compound to doxorubicin IC50 for human SW620/Ad300 cells in presence to 20 uM test compound; assay type: functional
# [29] = system: HEK-293T; assay: Potentiation of cisplatin-induced cytotoxicity against HEK293T cells assessed as change in cisplatin IC50 at 10 uM after 72 hrs by MTT assay relative to control; assay type: cell-based; settings: human
# [30] = Ratio of cisplatin IC50 for cytotoxicity against HEK293T cells in absence of test compound to cisplatin IC50 for HEK293T cells expressing ABCB1 in presence of 20 uM test compound; assay type: functional, Homo sapiens
# [31] = biological target: T1, ATP-dependent translocase ABCB1; assay: Stabilization of ABCB1 in human SW620/Ad300 cells at 10 uM after 30 mins by cellular thermal shift assay; assay type: cell-based; settings: 0.5 h
# [32] = system: SW-620; assay: Cytotoxicity against human SW620 cells assessed as decrease in cell survival after 72 hrs by MTT assay; assay type: cell-based; settings: SW-620, 72 h
# [33] = Ratio of doxorubicin IC50 for cytotoxicity against human SW620 cells in absence of test compound to doxorubicin IC50 for human SW620/Ad300 cells in presence to 4 uM test compound; assay type: functional
# [34] = Ratio of cisplatin IC50 for cytotoxicity against HEK293T cells in absence of test compound to cisplatin IC50 for HEK293T cells expressing ABCB1 in presence of 4 uM test compound; assay type: functional, Homo sapiens
# [35] = system: SW-620; assay: Potentiation of paclitaxel-induced cytotoxicity against human SW620 cells assessed as change in paclitaxel IC50 at 20 uM after 72 hrs by MTT assay relative to control; assay type: cell-based; settings: sw-620, 72 h
# [36] = system: HEK-293T; assay: Potentiation of doxorubicin-induced cytotoxicity against HEK293T cells assessed as change in doxorubicin IC50 at 20 uM after 72 hrs by MTT assay relative to control; assay type: cell-based; settings: human
# [37] = Ratio of cisplatin IC50 for cytotoxicity against human SW620 cells in absence of test compound to cisplatin IC50 for human SW620/Ad300 cells in presence to 20 uM test compound; assay type: functional
# [38] = Ratio of paclitaxel IC50 for cytotoxicity against human SW620 cells in absence of test compound to paclitaxel IC50 for human SW620/Ad300 cells in presence to 20 uM test compound; assay type: functional
# [39] = biological target: T1, ATP-dependent translocase ABCB1; assay: Inhibition of ABCB1 in human SW620/Ad300 cells assessed as potentiation of paclitaxel-induced cytotoxicity after 72 hrs by MTT assay; assay type: cell-based
# [40] = system: SW-620; assay: Potentiation of paclitaxel-induced cytotoxicity against human SW620 cells assessed as change in paclitaxel IC50 at 10 uM after 72 hrs by MTT assay relative to control; assay type: cell-based; settings: sw-620, 72 h
# [41] = system: HEK-293T; assay: Potentiation of doxorubicin-induced cytotoxicity against HEK293T cells assessed as change in doxorubicin IC50 at 10 uM after 72 hrs by MTT assay relative to control; assay type: cell-based; settings: human
# [42] = system: SGC-7901; assay: Cytotoxicity against human SGC7901 cells assessed as decrease in cell survival at 10 to 20 uM after 72 hrs by MTT assay; assay type: cell-based; settings: sgc-7901, 72 h
# [43] = Ratio of cisplatin IC50 for cytotoxicity against human SW620 cells in absence of test compound to cisplatin IC50 for human SW620/Ad300 cells in presence to 10 uM test compound; assay type: functional
# [44] = Ratio of doxorubicin IC50 for cytotoxicity against HEK293T cells in absence of test compound to doxorubicin IC50 for HEK293T cells expressing ABCB1 in presence of 10 uM test compound; assay type: functional, Homo sapiens
# [45] = Ratio of paclitaxel IC50 for cytotoxicity against HEK293T cells in absence of test compound to paclitaxel IC50 for HEK293T cells expressing ABCB1 in presence of 10 uM test compound; assay type: functional, Homo sapiens
# [46] = system: HEK-293T; assay: Potentiation of doxorubicin-induced cytotoxicity against HEK293T cells assessed as change in doxorubicin IC50 at 4 uM after 72 hrs by MTT assay relative to control; assay type: cell-based; settings: human
# [47] = system: SW-620; assay: Potentiation of cisplatin-induced cytotoxicity against human SW620 cells assessed as change in cisplatin IC50 at 4 uM after 72 hrs by MTT assay relative to control; assay type: cell-based; settings: sw-620, 72 h
# [48] = system: HEK-293T; assay: Potentiation of paclitaxel-induced cytotoxicity against HEK293T cells assessed as change in paclitaxel IC50 at 20 uM after 72 hrs by MTT assay relative to control; assay type: cell-based; settings: human
# [49] = Ratio of paclitaxel IC50 for cytotoxicity against human SW620 cells in absence of test compound to paclitaxel IC50 for human SW620/Ad300 cells in presence to 4 uM test compound; assay type: functional
# [50] = system: HEK-293T; assay: Potentiation of cisplatin-induced cytotoxicity against HEK293T cells assessed as change in cisplatin IC50 at 20 uM after 72 hrs by MTT assay relative to control; assay type: cell-based; settings: human
compound,measurement,setting,value
O=c1cc(-c2ccccc2)[nH]c2nc(SCc3nc4ccccc4[nH]3)nn12,Activity,[1],inactive
same,Ratio IC50,[2],279.2
same,Ratio IC50,[3],19.37
same,Activity,[4],Non-Toxic
same,inhibition (INH),[5],Dose-dependent effect
same,Ratio IC50,[6],0.98
same,Ratio IC50,[7],4.05
same,Activity,[8],Non-Toxic
same,Ratio IC50,[9],1.05
same,Ratio IC50,[10],15.69
same,fold change (FC),[11],0.87
same,fold change (FC),[12],0.89
same,fold change (FC),[13],1.17
same,Activity,[14],inactive
same,fold change (FC),[15],1.07
same,inhibition (INH),[16],Active
same,fold change (FC),[17],1.14
same,fold change (FC),[18],1.29
same,fold change (FC),[19],0.84
same,Ratio IC50,[20],4.1
same,Activity,[21],Non-Toxic
same,fold change (FC),[22],0.97
same,Ratio IC50,[23],6.02
same,inhibition (INH),[24],Dose-dependent effect
same,Activity,[25],Non-Toxic
same,pIC50,[26],3.97
same,fold change (FC),[27],1.18
same,Ratio IC50,[28],3.77
same,fold change (FC),[29],1.04
same,Ratio IC50,[30],0.91
same,Activity,[31],Active
same,pIC50,[32],4.07
same,Ratio IC50,[33],4.32
same,Ratio IC50,[34],0.91
same,fold change (FC),[35],0.81
same,fold change (FC),[36],1.08
same,Ratio IC50,[37],1.01
same,Ratio IC50,[38],125.8
same,inhibition (INH),[39],Dose-dependent effect
same,fold change (FC),[40],1.2
same,fold change (FC),[41],1.14
same,Activity,[42],Non-Toxic
same,Ratio IC50,[43],0.96
same,Ratio IC50,[44],5.36
same,Ratio IC50,[45],27.8
same,fold change (FC),[46],1.07
same,fold change (FC),[47],1.1
same,fold change (FC),[48],0.83
same,Ratio IC50,[49],156.74
same,fold change (FC),[50],0.98
